Read-outs that look alike come from different tables or passages of the source. Starred links: 1 amine or outer side, 2 acyl side, 3 side chain; linkers in the order of their positions; H or OH if unused. Positions of bridges follow the written chain, without caps; N, C: chain ends. Non-standard residues stand in square brackets, D forms with d. Residues, ends and D or L forms follow the SMILES beside them. *: point of attachment. dαMeDab = C[C@](CCN[*:3])(N[*:1])C(=O)[*:2]; Arg(Me) = CNC(=N)NCCC[C@H](N)C(=O)O; d(αMeOrn) = C[C@@](N)(CCCN)C(=O)O; dPhg = N[C@@H](C(=O)O)c1ccccc1; dDab = NCC[C@@H](N)C(=O)O; Isobutyryl = CC(C)C(=O)*; Abu = CC[C@H](N)C(=O)O
Assays:
WDR5 = target: T1, WDR5 (Homo sapiens, UniProt P61964); assay: fluorescence polarization (FP) based competitive binding assay to WDR5 protein
T1 construct: N-terminal His-tagged WDR5 protein (residues 24-334), named WDR5Δ23; made in house; host or cells: E. coli Rosetta 2 (DE3)
Experimental: The plates were incubated at room temperature on a shaker for 3h, and then the mP values were measured using the Tecan Infinite M-1000 plate reader (Tecan U.S., Research Triangle Park, N.C.).

[1] = system: HL-60 leukemia cells carrying no MLL fusion; assay: cell viability assay (WST-8), HL-60; format: cell-based; conditions: for IC50: read-out: Cell Growth Inhibition IC50 (μM) HL-60
Experimental: Cell viability was determined using the WST-8 cell proliferation assay kit (Dojindo Molecular Technologies) according to manufacturer's instructions. Three independent experiments in triplicates were performed.

[2] = system: MV4;11 leukemia cells carrying MLL-AF4 fusion; assay: cell viability assay (WST-8), MV4;11; format: cell-based; conditions: Homo sapiens, MV4-11, 96 h, read-out: Cell Growth Inhibition IC50 (μM) MV-4-11
Experimental: To assess cell viability, MOLM-13 leukemia cells carrying MLL-AF9 fusion, MV4;11 leukemia cells carrying MLL-AF4 fusion or HL-60 leukemia cells carrying no MLL fusion were seeded 1×10^4 cell/well in 96-well plates and treated with an inhibitor for 4 days at different concentrations, in culture media containing 0.2% DMSO as the final concentration. Cell viability was determined using the WST-8 cell proliferation assay kit (Dojindo Molecular Technologies) according to manufacturer's instructions. Three independent experiments in triplicates were performed.

[3] = system: MOLM-13 leukemia cells carrying MLL-AF9 fusion; assay: cell viability assay (WST-8), MOLM-13; format: cell-based; conditions: Homo sapiens, MOLM-13, 96 h, read-out: Cell Growth Inhibition IC50 (μM) MOLM-13
MLL complex = target: T2, MLL complex (Homo sapiens, UniProt P61964); assay: AlphaLISA MLL HMT functional assay (cell-free); format: biochemical; conditions: read-out: Inhibition of MLL HMT Activity IC50 ± SD
T2 construct: full length human WDR5 with N-terminal 6×His tag; purchased Activmotif (Carlsbad, Calif.)
Text: To avoid multiple wash and transfer steps, an amplified luminescent proximity homogeneous assay (AlphaLISA) was developed and optimized to evaluate the MLL HMT inhibitory activities of the Compounds of the Disclosure.
In this assay, recombinant nucleosomes are initially treated with the MLL complex for methylation in the presence of S-Adenosyl methionine (SAM) as cofactor before stopping the reaction with high salt buffer. Then, anti-H3K4Mel/2 antibody, which is covalently linked to acceptor beads, and biotinylated anti-H3 (C-terminus) antibody were added.
Anti-Histone H3 Lysine 4 (H3K4mel-2) AlphaLISA acceptor beads, AlphaScreen Streptavidin donor beads and biotinylated anti-H3 (C-terminus) antibody were obtained from PerkinElmer Life Sciences (Waltham, Mass.). 2.5 μl of compound serial dilutions in assay buffer with 4% DMSO and 5 μl of pentameric MLL complex solution were added into a white low volume 384 well microtiter plate which was incubated for 30 minutes with gentle shaking at room temperature, followed by adding 2.5 μl of SAM/Nucleosome mixture. The methylation reaction was performed in 50 mM Tris, pH 8.5 with 1 mM DTT and 0.01% Tween-20 added right before the assay. Final concentrations of MLL complex, SAM, and nucleosomes were 5 nM, 200 nM, and 3 nM, respectively. Final DMSO in the reaction mixture was 1%. The reaction was allowed to perform for 120 minutes in dark with gentle shaking at room temperature. […] 5 μL of high salt stopping solution (50 mM Tris, pH 7.4 with 1 M NaCl, 0.1% Tween-20, and 0.3% poly-L-Lysine) was added to stop the methylation reactions for 15 minutes. 5 μl of 5× acceptor beads/biotinylated anti-H3 antibody mixture in detection buffer (50 mM Tris, pH 7.4 with 0.3 M NaCl, 0.1% Tween-20, and 0.001% poly-L-Lysine) was added, followed by 1 hour incubation at room temperature to allow full interaction between antibodies and methylated nucleosomes. Add 5 μL of 5× streptavidin donor beads in detection and incubate 30 minutes.

[4] = stability in cell culture media; format: physicochemical; conditions: up to 7 days; data not shown
Experimental: To assess the effect of long-term treatment of compound Cpd. No. 5 on leukemia cells, MOLM-13 and MV4;11 cell lines were plated at a density of 5×10^4 cell/ml in 24-well plates (2 ml/well), and treated with the relevant concentrations. On day 4, cell viability for each treatment was measured using the WST-8 cell count kit. Then 10% of viable cells from each well were transferred to freshly prepared medium containing corresponding concentrations of compound Cpd. No. 5 and cultured for additional 3 days. On day 7, cell viability for each treatment was determined. In this experiment, 100,000 cells were seeded in each well in 24-well plates, whereas the cell growth inhibition data obtained for Cpd. No. 64 in Table 2 was obtained by seeding 10,000 cells in 96-well plates. Additionally, Cpd. No. 5 is stable in cell culture media up to 7 days (data not shown).

SET1b = SET1b (Homo sapiens, UniProt Q9UPS6); assay: HMT assay, SET1 family specificity; format: biochemical; conditions: up to 100 μM; data not shown
Experimental: (§1) The specificity of Cpd. No. 5 was tested against MLL and other SET1 family members (MLL2, MLL3, MLL4, SET1a and SET1b) using the previously published HMT assays (Karatas et al., J. Med. Chem. 53:5179-5185 (2010)). Cpd.

SET1a = SET1a (Homo sapiens, UniProt O15047); assay: HMT assay, SET1 family specificity; format: biochemical; conditions: up to 100 μM; data not shown
Experimental: as §1

MLL2 = assay: HMT assay, SET1 family specificity; format: biochemical; conditions: up to 100 μM; data not shown
Experimental: as §1

MLL4 = assay: HMT assay, SET1 family specificity; format: biochemical; conditions: up to 100 μM; data not shown
Experimental: as §1

MLL3 = MLL3 (Homo sapiens, UniProt Q8NEZ4); assay: HMT assay, SET1 family specificity; format: biochemical; conditions: up to 100 μM; data not shown
Experimental: as §1

[5] = calculated from IC50 by published equation, read-out: Binding Affinity to WDR5 Ki ± SD
[6] = read-out: Binding Affinity to WDR5 IC50 ± SD
[7] = Homo sapiens, HL-60, 96 h, 4 days treatment

Row | SMILES | Ki (WDR5; [5]) [nM] | IC50 (WDR5; [6]) [nM] | IC50 [1, 7] [µM] | IC50 ([2]; 4 days treatment) [µM] | IC50 ([3]; 4 days treatment) [µM] | IC50 (MLL complex) [nM] | IC50 (WDR5) [nM] | Ki (WDR5) [nM] | IC50 ([1]; Homo sapiens, HL-60, 96 h) [µM] | IC50 [2] [µM] | IC50 [3] [µM] | further results
1 | CC[C@@H]1NC(=O)[C@H](CCCNC(=N)N)NC(=O)[C@H](NC(=O)C(C)C)CCNC(=O)[C@@H](c2ccccc2)NC1=O [Cpd. No. 1, N-((3R,6S,9S,12R)-6-ethyl-9-(3-guanidinopropyl)-2,5,8,11-tetraoxo-3-phenyl-1,4,7,10-tetraazacyclotetradecan-12-yl)isobutyramide] (Isobutyryl-[dDab]R[Abu][dPhg]; lactam 1-C) | 0.8 ± 0.1 | 6.2 ± 0.5 | > 100 | 43.4 | 42.8 | 1.8 ± 0.4 |  |  |  |  |  | 
2 | CC[C@@H]1NC(=O)[C@H](CCCNC(=N)N)NC(=O)[C@](C)(NC(=O)C(C)C)CCCCCCNC(=O)[C@@H](c2ccccc2)NC1=O [Cpd. No. 76, N-((3R,6S,9S,12R)-6-ethyl-9-(3-guanidinopropyl)-12-methyl-2,5,8,11-tetraoxo-3-phenyl-1,4,7,10-tetraazacyclooctadecan-12-yl)isobutyramide] |  |  |  |  |  | 216 ± 88 | 1 ± 0.2 | < 1 | 29.7 ± 11.5 | 3.2 ± 0.4 | 5.6 ± 0.7 | 
3 | CC[C@@H]1NC(=O)[C@H](CCCNC(=N)N)NC(=O)[C@](C)(NC(=O)C(C)C)CCCCCCCCNC(=O)[C@@H](c2ccccc2)NC1=O [Cpd. No. 77, N-((3R,6S,9S,12R)-6-ethyl-9-(3-guanidinopropyl)-12-methyl-2,5,8,11-tetraoxo-3-phenyl-1,4,7,10-tetraazacycloicosan-12-yl)isobutyramide] |  |  |  |  |  | 744 ± 79 | 1.3 ± 0.2 | < 1 | > 100 | 7.5 ± 3 | 21.6 ± 4.8 | 

More lines, main results first:

Row | Ki (WDR5; [5]) [nM] | IC50 (WDR5; [6]) [nM] | IC50 [1, 7] [µM] | IC50 ([2]; 4 days treatment) [µM] | IC50 ([3]; 4 days treatment) [µM] | SMILES | IC50 (MLL complex) [nM] | IC50 (WDR5) [nM] | Ki (WDR5) [nM] | IC50 ([1]; Homo sapiens, HL-60, 96 h) [µM] | IC50 [2] [µM] | IC50 [3] [µM] | further results
4 | < 1 | 0.9 ± 0.2 | 8.6 | 0.25 | 0.21 | CC[C@@H]1NC(=O)[C@H](CCCNC(=N)NC)NC(=O)[C@](C)(NC(=O)C(C)C)CCNC(=O)[C@@H](c2ccccc2)NC1=O [Cpd. No. 5, N-((3R,6S,9S,12R)-6-ethyl-12-methyl-9-(3-(3-methylguanidino)propyl)-2,5,8,11-tetraoxo-3-phenyl-1,4,7,10-tetraazacyclotetradecan-12-yl)isobutyramide] (Isobutyryl-[dαMeDab][Arg(Me)][Abu][dPhg]; lactam 1-C) |  |  |  |  |  |  | IC50 (WDR5; Table 3A, read-out: Binding Affinity to WDR5 IC50): 2.13 nM; Ki (WDR5; Table 3A, read-out: Binding Affinity to WDR5 Ki): < 1 nM; IC50 ([1]; 4 days treatment): 8.56 ± 1.14 µM; selectivity for the MV4;11 and MOLM-13 cell lines harboring MLL translocations over the HL-60 cell line ([1]; cell growth inhibition IC50 ratio): > 30 fold; stability in cell culture media [4]: stable; inhibition of the HMT activity of SET1b (SET1b): no or a minimal effect; inhibition of the HMT activity of SET1a (SET1a): no or a minimal effect; inhibition of the HMT activity of MLL2 (MLL2): no or a minimal effect; inhibition of the HMT activity of MLL4 (MLL4): no or a minimal effect; inhibition of the HMT activity of MLL3 (MLL3): no or a minimal effect
5 | < 1 | 0.97 ± 0.13 | 46.8 | 1.29 | 1.28 ± 0.01 | CC[C@@H]1NC(=O)[C@H](CCCNC(=N)N)NC(=O)[C@](C)(NC(=O)C(C)C)CCCNC(=O)[C@@H](c2ccccc2)NC1=O [Cpd. No. 74, N-((3R,6S,9S,12R)-6-ethyl-9-(3-guanidinopropyl)-12-methyl-2,5,8,11-tetraoxo-3-phenyl-1,4,7,10-tetraazacyclopentadecan-12-yl)isobutyramide] (Isobutyryl-[d(αMeOrn)]R[Abu][dPhg]; lactam 1-C) |  |  |  |  |  |  | 
6 | < 1 | 2.6 ± 0.2 | > 100 | 15.1 ± 11.8 | 37.6 ± 12.1 | CC[C@@H]1NC(=O)[C@H](CCCNC(=N)N)NC(=O)[C@](C)(NC(=O)C(C)C)CCCCCNC(=O)[C@@H](c2ccccc2)NC1=O [Cpd. No. 75, N-((3R,6S,9S,12R)-6-ethyl-9-(3-guanidinopropyl)-12-methyl-2,5,8,11-tetraoxo-3-phenyl-1,4,7,10-tetraazacycloheptadecan-12-yl)isobutyramide] |  |  |  |  |  |  | 

— US20210130401A1, “PEPTIDOMIMETIC INHIBITORS OF THE WDR5-MLL INTERACTION” (THE REGENTS OF THE UNIVERSITY OF MICHIGAN, priority 2017, published 2021)
